Experimental data reported in PMC10569638 (PLOS ONE, 2023).
Like-named read-outs stand apart in the source and are kept apart here.

Tests used:
Type in all cases: cell-based
[1] = target: T1, zebrafish αβδ nAChR (δ-type) (Danio rerio, UniProt Q75XT1+Q98880); experiment: TEVC inhibition of ACh-elicited nAChR current in Xenopus oocytes, δ-type; details: for Hill coefficient: inhibition, δ-type
Method: (§1) The bath solution was ND96. […] Oocytes were incubated around 30 sec in the bath solution containing inhibitors of identical concentration. Recordings were performed at room temperature. Holding potential was -80 mV. Vecuronium and rocuronium were purchased from Tokyo Chemical Industry. Pancuronium and d-tubocurarine were purchased from Alomone Labs and FUJIFILM Wako Chemicals, respectively.
(§2) Fitting algorism is identical to that of ACh.

[2] = target: T2, zebrafish αβδε nAChR (ε-type) (Danio rerio, UniProt A2BG85+Q75XT1+Q98880); experiment: TEVC inhibition of ACh-elicited nAChR current in Xenopus oocytes, ε-type; details: for Hill coefficient: inhibition, ε-type
T2 sequence (Q98880 21-456): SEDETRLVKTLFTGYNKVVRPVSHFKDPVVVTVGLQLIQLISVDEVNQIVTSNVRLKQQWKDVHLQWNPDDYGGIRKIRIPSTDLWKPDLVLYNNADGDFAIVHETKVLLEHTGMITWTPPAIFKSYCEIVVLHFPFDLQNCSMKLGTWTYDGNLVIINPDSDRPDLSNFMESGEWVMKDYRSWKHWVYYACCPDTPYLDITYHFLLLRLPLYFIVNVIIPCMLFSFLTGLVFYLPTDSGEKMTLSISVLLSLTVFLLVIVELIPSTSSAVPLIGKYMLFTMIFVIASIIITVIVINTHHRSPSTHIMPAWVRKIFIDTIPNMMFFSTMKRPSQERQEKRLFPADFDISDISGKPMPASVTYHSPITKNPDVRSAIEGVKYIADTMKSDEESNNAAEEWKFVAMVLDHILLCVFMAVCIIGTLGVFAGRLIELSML
T2 sequence (Q75XT1 22-518): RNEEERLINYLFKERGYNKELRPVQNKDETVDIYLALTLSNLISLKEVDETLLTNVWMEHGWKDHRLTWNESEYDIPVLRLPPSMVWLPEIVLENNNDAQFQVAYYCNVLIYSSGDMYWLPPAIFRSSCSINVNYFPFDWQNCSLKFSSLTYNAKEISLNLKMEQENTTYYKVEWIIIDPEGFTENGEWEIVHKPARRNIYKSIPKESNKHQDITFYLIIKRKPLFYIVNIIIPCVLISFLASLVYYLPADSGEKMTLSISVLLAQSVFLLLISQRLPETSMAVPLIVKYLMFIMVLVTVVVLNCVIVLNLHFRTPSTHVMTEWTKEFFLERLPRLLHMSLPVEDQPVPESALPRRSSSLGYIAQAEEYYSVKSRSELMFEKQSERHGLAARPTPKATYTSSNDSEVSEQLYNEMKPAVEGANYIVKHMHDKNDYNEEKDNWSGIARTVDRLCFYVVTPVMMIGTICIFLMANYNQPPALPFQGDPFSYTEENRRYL
T2 sequence (A2BG85 27-517): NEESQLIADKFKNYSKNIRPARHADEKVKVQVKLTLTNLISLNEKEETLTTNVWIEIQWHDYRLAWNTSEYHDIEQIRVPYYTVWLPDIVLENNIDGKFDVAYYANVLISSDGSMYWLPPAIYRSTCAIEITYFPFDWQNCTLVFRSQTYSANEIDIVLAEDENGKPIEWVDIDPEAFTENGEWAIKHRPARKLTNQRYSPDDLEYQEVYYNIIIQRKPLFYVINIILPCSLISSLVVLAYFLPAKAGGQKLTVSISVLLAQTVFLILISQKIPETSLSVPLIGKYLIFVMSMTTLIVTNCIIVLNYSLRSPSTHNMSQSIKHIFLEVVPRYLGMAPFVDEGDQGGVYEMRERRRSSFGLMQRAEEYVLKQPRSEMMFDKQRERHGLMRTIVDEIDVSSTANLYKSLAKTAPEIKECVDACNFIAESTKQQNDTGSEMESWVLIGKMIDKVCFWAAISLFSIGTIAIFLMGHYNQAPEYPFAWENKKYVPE
T2 sequence (G1FMP8 23-492 partner): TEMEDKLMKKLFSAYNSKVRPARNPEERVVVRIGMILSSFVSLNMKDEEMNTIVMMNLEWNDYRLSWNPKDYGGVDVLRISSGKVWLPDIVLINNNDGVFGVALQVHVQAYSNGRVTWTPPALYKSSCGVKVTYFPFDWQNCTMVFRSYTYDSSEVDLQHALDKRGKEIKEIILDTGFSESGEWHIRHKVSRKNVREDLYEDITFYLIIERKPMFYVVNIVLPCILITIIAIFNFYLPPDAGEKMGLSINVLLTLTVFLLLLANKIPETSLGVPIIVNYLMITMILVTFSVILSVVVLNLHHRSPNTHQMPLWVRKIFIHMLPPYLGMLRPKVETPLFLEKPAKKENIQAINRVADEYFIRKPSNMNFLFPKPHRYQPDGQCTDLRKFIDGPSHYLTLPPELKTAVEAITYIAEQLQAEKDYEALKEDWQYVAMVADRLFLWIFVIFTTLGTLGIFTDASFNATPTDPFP
Method: as §1, §2

[3] = target: zebrafish nAChR containing δ/δ/ε chimeric subunit (Danio rerio, UniProt A2BG85+Q75XT1+Q98880); experiment: TEVC inhibition of nAChR current, α, β, δ + δ/δ/ε chimera; details: 100 μM ACh, mean ± sem
Method: as §1, §2

[4] = target: zebrafish nAChR containing ε/ε/δ chimeric subunit (Danio rerio, UniProt A2BG85+Q75XT1+Q98880); experiment: TEVC inhibition of nAChR current, α, β, δ + ε/ε/δ chimera; details: 100 μM ACh, mean ± sem
Method: as §1, §2

[5] = target: zebrafish nAChR containing ε/δ/δ chimeric subunit (Danio rerio, UniProt A2BG85+Q75XT1+Q98880); experiment: TEVC inhibition of nAChR current, α, β, δ + ε/δ/δ chimera; details: mean ± sem
zebrafish nAChR containing ε/δ/δ chimeric subunit, sequence (A2BG85 1-234, stated change not applied): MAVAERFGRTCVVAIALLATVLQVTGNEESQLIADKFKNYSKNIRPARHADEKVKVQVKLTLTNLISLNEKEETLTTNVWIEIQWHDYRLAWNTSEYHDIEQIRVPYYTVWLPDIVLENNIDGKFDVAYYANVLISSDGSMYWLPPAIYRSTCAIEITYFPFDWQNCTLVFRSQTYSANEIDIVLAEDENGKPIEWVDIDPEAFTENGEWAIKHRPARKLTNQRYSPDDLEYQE
zebrafish nAChR containing ε/δ/δ chimeric subunit, sequence (Q75XT1 235-518, stated change not applied): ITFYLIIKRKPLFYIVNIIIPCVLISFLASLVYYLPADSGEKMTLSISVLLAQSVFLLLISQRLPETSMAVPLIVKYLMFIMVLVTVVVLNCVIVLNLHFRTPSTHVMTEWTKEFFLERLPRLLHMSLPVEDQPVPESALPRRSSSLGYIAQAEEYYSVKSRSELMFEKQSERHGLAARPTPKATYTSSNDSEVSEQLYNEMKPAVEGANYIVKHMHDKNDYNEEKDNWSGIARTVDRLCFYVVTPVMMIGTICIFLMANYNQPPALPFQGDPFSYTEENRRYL
zebrafish nAChR containing ε/δ/δ chimeric subunit, sequence (Q98880 21-456, stated change not applied): as the sequence (Q98880 21-456) above
zebrafish nAChR containing ε/δ/δ chimeric subunit, sequence (Q75XT1 235-518, stated change not applied): as the sequence (Q75XT1 235-518, stated change not applied) above
zebrafish nAChR containing ε/δ/δ chimeric subunit, sequence (G1FMP8 23-492 partner): as the sequence (G1FMP8 23-492 partner) above
Method: as §1, §2

[6] = target: T1, zebrafish αβδ nAChR (δ-type); experiment: Voltage-dependent block tested by ramp pulses, δ-type; details: 20 nM pancuronium
Method: (§3) To examine possible pore blocking activity of pancuronium, the voltage-dependent block was tested by ramp pulses in the presence of pancuronium.
(§4) Fig 10 Voltage-dependent change of the conductance in the presence and absence of pancuronium. (A1), (B1), Representative current traces of the ε-type (A1) and the δ-type (B1). The black and gray traces are in the absence and the presence of 20 nM pancuronium, respectively. Pulse protocols are shown at the bottom. (A2), (B2), Representative I-V curves of the ε-type (A2) and the δ-type (B2). (A3), (B3), G-V curves of the ε-type (A3) and the δ-type (B3). Data were normalized by the conductance at -100 mV. Data are shown as mean ± sem. (N = 9 for all data).

[7] = target: zebrafish nAChR containing δ/ε/ε chimeric subunit (Danio rerio, UniProt A2BG85+Q75XT1+Q98880); experiment: TEVC inhibition of nAChR current, α, β, δ + δ/ε/ε chimera; details: mean ± sem
zebrafish nAChR containing δ/ε/ε chimeric subunit, sequence (Q75XT1 1-234, stated change not applied): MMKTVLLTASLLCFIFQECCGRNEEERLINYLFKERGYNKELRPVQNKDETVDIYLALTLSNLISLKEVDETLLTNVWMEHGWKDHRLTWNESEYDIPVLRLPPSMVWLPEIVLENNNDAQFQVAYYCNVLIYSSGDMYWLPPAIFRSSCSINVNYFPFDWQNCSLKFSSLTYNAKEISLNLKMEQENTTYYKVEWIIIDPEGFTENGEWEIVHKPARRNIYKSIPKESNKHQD
zebrafish nAChR containing δ/ε/ε chimeric subunit, sequence (A2BG85 235-517, stated change not applied): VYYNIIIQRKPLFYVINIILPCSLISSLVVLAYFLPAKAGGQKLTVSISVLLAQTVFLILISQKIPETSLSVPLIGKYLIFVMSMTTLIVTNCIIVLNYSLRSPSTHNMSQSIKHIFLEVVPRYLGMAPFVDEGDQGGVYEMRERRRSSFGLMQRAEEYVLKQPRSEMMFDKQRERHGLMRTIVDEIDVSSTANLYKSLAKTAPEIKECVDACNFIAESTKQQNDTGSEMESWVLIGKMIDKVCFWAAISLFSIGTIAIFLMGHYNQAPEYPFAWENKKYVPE
zebrafish nAChR containing δ/ε/ε chimeric subunit, sequence (Q98880 21-456, stated change not applied): as the sequence (Q98880 21-456) above
zebrafish nAChR containing δ/ε/ε chimeric subunit, sequence (Q75XT1 1-234, stated change not applied): as the sequence (Q75XT1 1-234, stated change not applied) above
zebrafish nAChR containing δ/ε/ε chimeric subunit, sequence (G1FMP8 23-492 partner): as the sequence (G1FMP8 23-492 partner) above
Method: as §1, §2

[8] = target: zebrafish nAChR containing ε/δ/ε chimeric subunit (Danio rerio, UniProt A2BG85+Q75XT1+Q98880); experiment: TEVC inhibition of nAChR current, α, β, δ + ε/δ/ε chimera; details: 100 μM ACh, mean ± sem
Method: as §1, §2

[9] = target: T2, zebrafish αβδε nAChR (ε-type); experiment: Voltage-dependent block tested by ramp pulses, ε-type; details: 20 nM pancuronium
Method: as §3, §4

[10] = target: zebrafish nAChR containing δ/ε/δ chimeric subunit (Danio rerio, UniProt A2BG85+Q75XT1+Q98880); experiment: TEVC inhibition of nAChR current, α, β, δ + δ/ε/δ chimera; details: 100 μM ACh, mean ± sem
Method: as §1, §2

[11] = IC50, δ-type, current elicited by 100 μM ACh, -80 mV, mean ± sem
[12] = IC50, ε-type, current elicited by 100 μM ACh, -80 mV, mean ± sem

T1 sequence (Q98880 21-456): as the sequence (Q98880 21-456) above
T1 sequence (Q75XT1 22-518): as the sequence (Q75XT1 22-518) above
T1 sequence (G1FMP8 23-492 partner): as the sequence (G1FMP8 23-492 partner) above

SMILES	IC50 [1, 11] [nM]	Hill coefficient ([1]; 100 μM ACh, mean ± sem)	IC50 [2, 12] [nM]	Hill coefficient ([2]; 100 μM ACh, mean ± sem)	IC50 [1] [nM]	IC50 [2] [nM]	IC50 ([1]; IC50, δ-type, by 2 μM ACh, mean ± sem) [nM]	Hill coefficient ([1]; by 2 μM ACh, mean ± sem)	Hill coefficient [3]	Hill coefficient [4]	Hill coefficient ([5]; 100 μM ACh)	Hill coefficient ([5]; by 2 μM ACh)	voltage-dependent block [6]	IC50 ([2]; IC50, ε-type, by 2 μM ACh, mean ± sem) [nM]	Hill coefficient ([2]; by 2 μM ACh, mean ± sem)	Hill coefficient ([7]; 100 μM ACh)	Hill coefficient ([7]; by 2 μM ACh)	Hill coefficient [8]	voltage-dependent block [9]	Hill coefficient [10]
CC(=O)O[C@H]1C[C@@H]2CC[C@@H]3[C@H](CC[C@@]4(C)[C@H]3C[C@H]([N+]3(C)CCCCC3)[C@@H]4OC(C)=O)[C@@]2(C)C[C@@H]1N1CCCCC1 [vecuronium]	0.7 ± 0.1	1.0 ± 0.1	1.1 ± 0.2	1.3 ± 0.2	–	–	–	–	–	–	–	–	–	–	–	–	–	–	–	–
C=CC[N+]1([C@H]2C[C@H]3[C@@H]4CC[C@H]5C[C@H](O)[C@@H](N6CCOCC6)C[C@]5(C)[C@H]4CC[C@]3(C)[C@H]2OC(C)=O)CCCC1 [rocuronium]	4.2 ± 0.7	1.1 ± 0.1	4.7 ± 0.7	0.7 ± 0.1	–	–	–	–	–	–	–	–	–	–	–	–	–	–	–	–
COc1cc2c3cc1Oc1cc(ccc1O)C[C@@H]1c4c(cc(OC)c(O)c4Oc4ccc(cc4)C[C@@H]3N(C)CC2)CC[N+]1(C)C [d-tubocurarine]	–	1.1 ± 0.1	–	1.2 ± 0.1	123 ± 18.7	112 ± 8.2	–	–	–	–	–	–	–	–	–	–	–	–	–	–
CC(=O)O[C@H]1C[C@@H]2CC[C@@H]3[C@H](CC[C@@]4(C)[C@H]3C[C@H]([N+]3(C)CCCCC3)[C@@H]4OC(C)=O)[C@@]2(C)C[C@@H]1[N+]1(C)CCCCC1 [pancuronium]	116 ± 29.2	1.3 ± 0.4	15.6 ± 1	1.1 ± 0.1	–	–	109 ± 30.9	1.1 ± 0.2	1.0 ± 0.1	1.8 ± 0.3	1.7 ± 0.5	1.4 ± 0.5	voltage dependency of block was again not observed	12.5 ± 1.9	1.1 ± 0.2	1.0 ± 0.0	1.8 ± 1.0	0.9 ± 0.1	the specific blockage of outward or inward current by pancuronium was not observed	1.0 ± 0.1
